Holding throughout (assay): relative viability (nuclei count vs DMSO), 5 days (fraction); higher = more cells survive
Compound in the assay “Idelalisib + Vorinostat”: CC[C@H](Nc1ncnc2[nH]cnc12)c1nc2cccc(F)c2c(=O)n1-c1ccccc1 [Idelalisib] + O=C(CCCCCCC(=O)Nc1ccccc1)NO [Vorinostat] (partner 1 µM)
In a few lines: (§1)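 Relative viability equals treated-well nuclei counts divided by vehicle-well nuclei counts. Counts came from 4× images of lung cancer cell lines grown in 1536-well plates for 5 days after pin-tool dosing on the day after seeding. Dosing used one drug alone or a fixed anchor-drug dose plus five library-drug doses (not always all listed) in √10 steps, and values are medians of duplicate plates.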

Compound in the assay “Pemetrexed + OSI-027”: Nc1nc2[nH]cc(CCc3ccc(C(=O)N[C@@H](CCC(=O)O)C(=O)O)cc3)c2c(=O)[nH]1 [Pemetrexed] + COc1cccc2cc(-c3nc([C@H]4CC[C@H](C(=O)O)CC4)n4ncnc(N)c34)[nH]c12 [OSI-027] (partner 0.5 µM)
Put shortly: as §1

Compound in the assay “Pemetrexed + Linsitinib”: Nc1nc2[nH]cc(CCc3ccc(C(=O)N[C@@H](CCC(=O)O)C(=O)O)cc3)c2c(=O)[nH]1 [Pemetrexed] + C[C@]1(O)C[C@@H](c2nc(-c3ccc4ccc(-c5ccccc5)nc4c3)c3c(N)nccn32)C1 [Linsitinib] (partner 1 µM)
In a few lines:
as §1

Compound in the assay “Pemetrexed + Olaparib”: Nc1nc2[nH]cc(CCc3ccc(C(=O)N[C@@H](CCC(=O)O)C(=O)O)cc3)c2c(=O)[nH]1 [Pemetrexed] + O=C(c1cc(Cc2n[nH]c(=O)c3ccccc23)ccc1F)N1CCN(C(=O)C2CC2)CC1 [Olaparib] (partner 8 µM)
Put shortly: as §1

UMC-11: the relative viability in the assay with Idelalisib + Vorinostat (first compound 0.04 µM) was found to be 0.474; with Idelalisib + Vorinostat (first compound 0.1265 µM), 0.392; in the assay with Idelalisib + Vorinostat (first compound 0.4 µM), 0.363; with Idelalisib + Vorinostat (first compound 1.265 µM) it was 0.437; with Idelalisib + Vorinostat (first compound 4 µM), 0.358; in the assay with Pemetrexed + OSI-027 (first compound 0.002 µM), 0.501. The relative viability in the assay with Pemetrexed + OSI-027 (first compound 0.006325 µM) came out at 0.482; with Pemetrexed + OSI-027 (first compound 0.02 µM), 0.481; with Pemetrexed + OSI-027 (first compound 0.06325 µM) it was 0.522; in the assay with Pemetrexed + OSI-027 (first compound 0.2 µM), 0.487; with Pemetrexed + Linsitinib (first compound 0.002 µM) it was 0.836; in the assay with Pemetrexed + Linsitinib (first compound 0.006325 µM), 1.03. In addition, the relative viability with Pemetrexed + Linsitinib (first compound 0.02 µM) came out at 1.08; with Pemetrexed + Linsitinib (first compound 0.06325 µM), 0.985; with Pemetrexed + Linsitinib (first compound 0.2 µM) it was 0.903; with Pemetrexed + Olaparib (first compound 0.002 µM) it was 0.361; with Pemetrexed + Olaparib (first compound 0.006325 µM), 0.374; with Pemetrexed + Olaparib (first compound 0.02 µM), 0.999. Besides, the relative viability came out at 0.441 with Pemetrexed + Olaparib (first compound 0.06325 µM) and 0.358 in the assay with Pemetrexed + Olaparib (first compound 0.2 µM).

Values taken from the supplement of paper PMC10307832.
